Data on one compound can be found in patent US11384054B2, “Crystalline form of ivacaftor and a process for preparing the same” (ScinoPharm Taiwan, Ltd., priority 2020, dated 2022).

SMILES strings stand for the structures. Values after ≈ are worked out from the molar mass of the structure shown. Where two headings read alike, the source gives them in different places.

This series in a line: Solubility test of ivacaftor in solvents and acetone/water mixtures at 25° C. Conditions: organic solvent or mixture. The series is classed as physicochemical. As to the method: “Solvent” refers to a liquid substance capable of dissolving ivacaftor at about 50° C. to about 60° C. The term “anti-solvent” refers to a liquid substance which is not capable of dissolving ivacaftor at about 20° C. to about 30° C. More particularly, solvents and anti-solvents suitable for crystalline forms of ivacaftor are selected by solubility test, such as the Tables 1A, […], and 1C below, taking into consideration of advantages provided by the convenience and efficiency of process operation, the use of more environmentally friendly solvents, mild crystallization conditions, and others.

Take `CC(C)(C)c1cc(C(C)(C)C)c(NC(=O)c2c[nH]c3ccccc3c2=O)cc1O` [ivacaftor]: the solubility was found to be 109 mg/mL (≈ 277 mM) (N,N-dimethylformamide, N,N-dimethylformamide, 25° C., read-out: Solubility); 27.9 mg/mL (≈ 71 mM) (acetone, Acetone, 25° C., read-out: Solubility); 27.9 mg/mL (≈ 71 mM) (acetone/water, 0% water in acetone, 25° C., read-out: Solubility in acetone/water); 27.9 mg/mL (≈ 71 mM) (acetone/water, 2% water in acetone, 25° C., read-out: Solubility in acetone/water); 41.4 mg/mL (≈ 106 mM) (acetone/water, 5% water in acetone, 25° C., read-out: Solubility in acetone/water); 41.2 mg/mL (≈ 105 mM) (acetone/water, 8% water in acetone, 25° C. (Table 1C), read-out: Solubility in acetone/water). For the same compound, the solubility (acetone/water, 10% water in acetone, 25° C., read-out: Solubility in acetone/water) came to 47.1 mg/mL (≈ 120 mM); the solubility (acetone/water, 15% water in acetone, 25° C., read-out: Solubility in acetone/water) was determined as 43.3 mg/mL (≈ 110 mM); the solubility (acetone/water, 30% water in acetone, 25° C., read-out: Solubility in acetone/water) was 11 mg/mL (≈ 28 mM); the solubility (acetone/water, 50% water in acetone, 25° C., read-out: Solubility in acetone/water) came to 0.34 mg/mL (≈ 0.866 mM); the solubility (acetonitrile, Acetonitrile, 25° C., read-out: Solubility) came to 1.78 mg/mL (≈ 4.54 mM); the solubility (cyclohexane, Cyclohexane, 25° C., read-out: Solubility) turned out to be 0.34 mg/mL (≈ 0.866 mM). For the same compound, the solubility (dimethyl sulfoxide, Dimethyl sulfoxide, 25° C., read-out: Solubility) amounted to 375 mg/mL (≈ 955 mM); the solubility (ethanol, Ethanol, 25° C., read-out: Solubility) worked out at 4.5 mg/mL (≈ 11.5 mM); the solubility (ethyl acetate, Ethyl acetate, 25° C., read-out: Solubility) worked out at 16.9 mg/mL (≈ 43.1 mM); the solubility (isopropanol, Isopropanol, 25° C., read-out: Solubility) amounted to 2.87 mg/mL (≈ 7.31 mM); the solubility (methanol, Methanol, 25° C., read-out: Solubility) stood at 1.98 mg/mL (≈ 5.04 mM); the solubility (methyl ethyl ketone, Methyl ethyl ketone, 25° C., read-out: Solubility) came to 44.7 mg/mL (≈ 114 mM). Moreover, the solubility runs as follows: (n-heptane, n-Heptane, 25° C., read-out: Solubility) 0.62 mg/mL (≈ 1.58 mM); (tetrahydrofuran, Tetrahydrofuran, 25° C., read-out: Solubility) 26.6 mg/mL (≈ 67.6 mM).
